From PubChem BioAssay AID1259407 (Chemical Carcinogenesis Research Information System (CCRIS), 2018) come the findings set out here.

The structures appear in SMILES notation. Calls of active or inactive are those of the source. No rule for the calls is given here.

This data set relates to CCRIS mutagenicity, Ames/micronucleus/aberration tests. Description: CCRIS mutagenicity studies.

For `CC(=NC#N)N(C)Cc1ccc(Cl)nc1`, the mutagenic call is “active; positive (structural changes), 20% purity (commercial product mosetam 20 sp)” (End Point: In vitro chromosomal aberrations, Test System: Human peripheral lymphocytes, Metabolic Activation: None); “active; positive, 20% purity (commercial product mosetam 20 sp)” (End Point: In vitro micronucleus, Test System: Human peripheral lymphocytes, Metabolic Activation: None); “inactive; negative” (End Point: In vivo micronucleus, Test System: Bone marrow polychromatic erythrocytes, Species: Mouse, Strain/Sex: CD-1/Female, Route: Gavage); “inactive; negative” (End Point: In vivo micronucleus, Test System: Bone marrow polychromatic erythrocytes, Species: Mouse, Strain/Sex: CD-1/Male, Route: Gavage); “inactive; negative” (Test System: Ames Salmonella typhimurium, Strain/Indicator: TA98, Metabolic Activation: None, Method: Preincubation); “inactive; negative” (Test System: Ames Salmonella typhimurium, Strain/Indicator: TA98, Metabolic Activation: Rodent, Liver, S-9, Method: Preincubation). In addition, the mutagenic call runs as follows: (Test System: Ames Salmonella typhimurium, Strain/Indicator: TA100, Metabolic Activation: None, Method: Preincubation) “inactive; negative”; (Test System: Ames Salmonella typhimurium, Strain/Indicator: TA100, Metabolic Activation: Rodent, Liver, S-9, Method: Preincubation) “inactive; negative”; (Test System: Ames Salmonella typhimurium, Strain/Indicator: TA1535, Metabolic Activation: None, Method: Preincubation) “inactive; negative”; (Test System: Ames Salmonella typhimurium, Strain/Indicator: TA1535, Metabolic Activation: Rodent, Liver, S-9, Method: Preincubation) “inactive; negative”; (Test System: Ames Salmonella typhimurium, Strain/Indicator: TA1537, Metabolic Activation: None, Method: Preincubation) “inactive; negative”; (Test System: Ames Salmonella typhimurium, Strain/Indicator: TA1537, Metabolic Activation: Rodent, Liver, S-9, Method: Preincubation) “inactive; negative”. Also, the mutagenic call runs as follows: (Test System: E. coli, Strain/Indicator: WP2 uvrA, Metabolic Activation: None, Method: Preincubation) “inactive; negative”; (Test System: E. coli, Strain/Indicator: WP2 uvrA, Metabolic Activation: Rodent, Liver, S-9, Method: Preincubation) “inactive; negative”; (Test System: UDS F344 male rat hepatocytes, Strain/Indicator: THY INCORP, Method: Autoradiography) “inactive; negative”.
Take `COC(=O)C1=C(C)NC(C)=C(C(=O)OC)C1c1ccccc1[N+](=O)[O-]`: the mutagenic call is, setting by setting: (Test System: AMES SALMONELLA TYPHIMURIUM, Strain/Indicator: TA97, Metabolic Activation: HAMSTER, LIVER, S-9, AROCLOR 1254 (10 OR 30%), Method: PREINCUBATION) “inactive; negative”; (Test System: AMES SALMONELLA TYPHIMURIUM, Strain/Indicator: TA97, Metabolic Activation: NONE, Method: PREINCUBATION) “inactive; negative”; (Test System: AMES SALMONELLA TYPHIMURIUM, Strain/Indicator: TA97, Metabolic Activation: RAT, LIVER, S-9, AROCLOR 1254 (10 OR 30%), Method: PREINCUBATION) “inactive; negative”; (Test System: AMES SALMONELLA TYPHIMURIUM, Strain/Indicator: TA98, Metabolic Activation: HAMSTER, LIVER, S-9, AROCLOR 1254 (10 OR 30%), Method: PREINCUBATION) “inactive; negative”; (Test System: AMES SALMONELLA TYPHIMURIUM, Strain/Indicator: TA98, Metabolic Activation: NONE, Method: PREINCUBATION) “inactive; negative”; (Test System: AMES SALMONELLA TYPHIMURIUM, Strain/Indicator: TA98, Metabolic Activation: RAT, LIVER, S-9, AROCLOR 1254 (10 OR 30%), Method: PREINCUBATION) “inactive; negative”. Further, the mutagenic call (Test System: AMES SALMONELLA TYPHIMURIUM, Strain/Indicator: TA100, Metabolic Activation: HAMSTER, LIVER, S-9, AROCLOR 1254 (10 OR 30%), Method: PREINCUBATION) is “inactive; negative”; the mutagenic call (Test System: AMES SALMONELLA TYPHIMURIUM, Strain/Indicator: TA100, Metabolic Activation: NONE, Method: PREINCUBATION) is “inactive; negative”; the mutagenic call (Test System: AMES SALMONELLA TYPHIMURIUM, Strain/Indicator: TA100, Metabolic Activation: RAT, LIVER, S-9, AROCLOR 1254 (10 OR 30%), Method: PREINCUBATION) is “inactive; negative”; the mutagenic call (Test System: AMES SALMONELLA TYPHIMURIUM, Strain/Indicator: TA1535, Metabolic Activation: HAMSTER, LIVER, S-9, AROCLOR 1254 (10 OR 30%), Method: PREINCUBATION) is “inactive; negative”; the mutagenic call (Test System: AMES SALMONELLA TYPHIMURIUM, Strain/Indicator: TA1535, Metabolic Activation: NONE, Method: PREINCUBATION) was “inactive; negative”; the mutagenic call (Test System: AMES SALMONELLA TYPHIMURIUM, Strain/Indicator: TA1535, Metabolic Activation: RAT, LIVER, S-9, AROCLOR 1254 (10 OR 30%), Method: PREINCUBATION) is “inactive; negative”.
